# Laboratory results reported in patent publication US20160038448A1, “THE INHIBITION OF THE TOXIC EFFECTS OF ISLET AMYLOID FORMATION BY FLURBIPROFEN AND FLURBIPROFEN DERIVATIVES” (The Research Foundation for the State University of New York, priority 2013, published 2016).
# “Also recorded” adds a separate entry of the source.
# What was measured:
# human IAPP = target: T1, human IAPP (Homo sapiens, UniProt P10997); experiment: Fluorescence detected thioflavin-T assay of the time course of amyloid formation; type: biochemical; conditions: for effect on islet amyloid formation (thioflavin-T time course): compound 20 parts, human IAPP 1 part, example in present tense; for inhibition of amyloid formation by human IAPP (amylin): 20 to 1 ratio of NSAID to human IAPP, pH 7.4, 25° C.
# T1 construct: Mature, fully processed, Amylin is 37 residues in length, contains a disulfide bond between residues 2 and 7; made in house; host or cells: chemical solid-phase peptide synthesis (Fmoc), no expression host
# T1 sequence (P10997 34-70 limits assumed): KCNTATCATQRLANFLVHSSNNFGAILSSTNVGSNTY
# Description: Peptides were first dissolved in 100% hexafluoroisopropanol (HFIP) at a concentration 1.6 mM and then filtered to remove any preformed amyloid aggregates. For thioflavin-T fluorescence assays, aliquots were lyophilized and redissolved in pH 7.4, 20 mM Tris-HCl buffer at the desired concentration. Aspirin and Ketoprofen were prepared in 100% dimethyl sulfoxide (DMSO).
# Solutions were prepared by adding pH 7.4, 20 mM Tris buffer and thioflavin-T to lyophilized dry peptides for a final peptide concentration of […]. For the studies of Aspirin and Ketoprofen, 0.25% DMSO was present in the solution. Measurements were made at 25° C. using a Beckman Coulter DTX880 plate reader without stirring. An excitation filter of 430 nm and an emission filter of 485 nm were used. To test disaggregate activity of Aspirin, peptide was first incubated in low-binding 96-wells plate and monitored by plate reader to ensure the formation of amyloid fibrils.
# A mixture of flurbiprofen (1-20 parts) and human IAPP (1 part) was monitored by fluorescence detected thioflavin-T assays. The assays monitored the time course of amyloid formation (amount vs time) in the presence and absence of flurbiprofen.
# A mixture of OH-flurbiprofen and human IAPP were monitored by fluorescence detected thioflavin-T assays. Three different concentrations (1:1 ratio, 1:10 ratio and 1:20 ratio of IAPP to OH-flurbiprofen) were tested against human IAPP without any added OH-flurbiprofen. The assays monitored the time course of amyloid formation (amount vs time) in the presence and absence of a flurbiprofen derivative.
# Three different mixtures of NSAIDs (20 parts) and human IAPP (1 parts) were compared to each other and human IAPP alone by fluorescence detected thioflavin-T assays. The assays monitored the time course of amyloid formation (amount vs time) in the presence and absence of aspirin, naproxen and flurbiprofen.
# [1] = tested on: 3XL-IAPP mutant (F15L, F23L, Y37L human IAPP); experiment: Thioflavin-T assay of mutant human IAPP amyloid formation (3XL); type: biochemical; conditions: WT human IAPP and mutant IAPP compared
# From the text: A mixture of flurbiprofen (20 parts) and human IAPP (1 part) was monitored by fluorescence detected thioflavin-T assays. The assays monitored the time course of amyloid formation (amount vs time) in the presence and absence of flurbiprofen. The effect of flurbiprofen in wild-type (WT) human IAPP, and in two mutants of human IAPP was monitored. In one mutant, all of the aromatic amino acids in human IAPP were replaced by […] human IAPP was examined. A second mutant in which […] human IAPP) was also tested.
# rat INS-1 beta-cells = experiment: AlamarBlue cell viability of beta-cells given aliquots of the IAPP amyloid time course; type: cell-based
# Description: FIG. 5. […] (A) A thioflavin-T monitored time course of amyloid formation in the presence and absence of flurbiprofen. […] 20 mM Tris-HCl buffer with 0.25% DMSO was used as the control.
# The presence of toxic intermediates is reduced when amyloid formation is accelerated by use of flurbiprofen or a flurbiprofen derivative. A thioflavin-T monitored time course of amyloid formation by human IAPP was conducted in the presence and absence of flurbiprofen. Aliquots were removed at various time points and applied to rat INS-1 beta-cells; at thirty minutes, at 12 hours, at 48 hours. Cell viability as judged by AlamarBlue assays. 20 mM Tris-HCl buffer with 0.25% DMSO was used as the control.
# [2] = Parallel biophysical and cell viability experiments on h-IAPP variants; type: cell-based
# Description: Parallel biophysical and cell viability experiments were conducted using a range of conditions that alter the length of the lag phase. h-IAPP amyloid kinetics are concentration-dependent. Decreasing the peptide concentration leads to an increase in the length of the lag phase, while an increase in human-IAPP concentration leads to a shortening of the lag phase. The length of the lag phase can also be controlled by altering the temperature. Lower temperatures lead to a longer lag phase; the lag phase is 2-fold longer at 15° C. […] A set of rationally designed Ser-20 mutations were used. Ser-20 is located at a critical position in the h-IAPP sequence and modulates its aggregation kinetics. […] Toxicity and kinetics experiments were performed on the Ser-20 mutants. […] An human-IAPP triple mutant, 3×L-IAPP, in which Leu replaced the three aromatic residues (Phe-15, Phe=23 and Tyr-37) was tested. This mutant forms amyloid 9-fold more slowly than wild type human IAPP (Marek at al. 2007). […] The duration of toxicity for all the mutants and for all the conditions with human IAPP wild type correlated with the length of the respective lag phases.
# human IAPP (amylin) = target: T2, human IAPP (amylin) (Homo sapiens, UniProt P10997); experiment: Transmission electron microscopy of amyloid fibrils; type: biochemical
# T2 construct: Mature, fully processed, Amylin is 37 residues in length, contains a disulfide bond between residues 2 and 7; made in house; host or cells: chemical solid-phase peptide synthesis (Fmoc), no expression host
# T2 sequence (P10997 34-70 limits assumed): T1 sequence (P10997 34-70 limits assumed)
# Description: TEM was performed at the Life Science Microscopy Center at Stony Brook University. Aliquots were removed from the same solutions that were used for the fluorescence measurements. 5 μL of peptide solution was placed on carbon-coated Formvar 300 mesh copper grid for one minute and then negatively stained with saturated uranyl acetate for another one minute.
# [3] = target: T3, pre-formed human amylin amyloid fibrils (Homo sapiens, UniProt P10997); experiment: Disaggregation of pre-formed amylin amyloid fibrils (thioflavin-T and TEM); type: biochemical; conditions: 20-fold excess added after amyloid formation was complete; up to 48 hours
# T3 construct: Mature, fully processed, Amylin is 37 residues in length, contains a disulfide bond between residues 2 and 7; made in house; host or cells: chemical solid-phase peptide synthesis (Fmoc), no expression host
# T3 sequence (P10997 34-70 limits assumed): T1 sequence (P10997 34-70 limits assumed)
# Description: Solutions were prepared by adding pH 7.4, 20 mM Tris buffer and thioflavin-T to lyophilized dry peptides for a final peptide concentration of 16 M. For the studies of Aspirin and Ketoprofen, 0.25% DMSO was present in the solution. Measurements were made at 25° C. using a Beckman Coulter DTX880 plate reader without stirring. An excitation filter of 430 nm and an emission filter of 485 nm were used.
# [4] = IAPP:compound ratios 1:1 to 1:20, pH 7.4, 20 mM Tris, 25° C.
# [5] = 20 to 1 ratio of compound to human IAPP
# [6] = compound 20 parts, human IAPP 1 part, example in present tense
molecule,measurement,setting,value
S-Flurbiprofen,effect on human IAPP amyloid formation (thioflavin-T time course),"human IAPP; 20 to 1 ratio of compound to human IAPP, listed as S flurbiprofen",equally effective
same,effect on human IAPP amyloid formation (thioflavin-T time course),"human IAPP; 20 to 1 ratio of compound to human IAPP, listed as S-flurbiprofen",accelerated islet amyloid formation
same,effect on human IAPP amyloid formation (thioflavin-T time course),human IAPP; [4],accelerates amyloid formation by human IAPP in a dose dependent manner
same,"acceleration of amyloid formation and reduction of toxic effects of intermediates, WT human IAPP versus mutant IAPP",[1],about equally
same,presence and toxic effects of intermediates of amyloid formation,rat INS-1 beta-cells; human IAPP with compound,reduced the presence and toxic effects of intermediates of amyloid formation
C[C@@H](C(=O)O)c1ccc(-c2ccccc2)c(F)c1 [R-flurbiprofen],effect on human IAPP amyloid formation (thioflavin-T time course),human IAPP; [5],accelerated islet amyloid formation
same,effect on human IAPP amyloid formation (thioflavin-T time course),"human IAPP; 20 to 1 ratio of compound to human IAPP, listed as R flurbiprofen",equally effective
same,"acceleration of amyloid formation and reduction of toxic effects of intermediates, WT human IAPP versus mutant IAPP",[1],about equally
same,presence and toxic effects of intermediates of amyloid formation,rat INS-1 beta-cells; human IAPP with compound,reduced the presence and toxic effects of intermediates of amyloid formation
CC[C@H](C)[C@H](NC(=O)[C@H](C)NC(=O)CNC(=O)[C@H](Cc1ccccc1)NC(=O)[C@H](CC(N)=O)NC(=O)[C@H](CC(N)=O)NC(=O)[C@H](CCCCN)NC(=O)[C@H](CO)NC(=O)[C@H](Cc1c[nH]cn1)NC(=O)[C@@H](NC(=O)[C@H](CC(C)C)NC(=O)[C@H](Cc1ccccc1)NC(=O)[C@H](CC(N)=O)NC(=O)[C@H](C)NC(=O)[C@H](CC(C)C)NC(=O)[C@H](CCCNC(=N)N)NC(=O)[C@H](CCC(N)=O)NC(=O)[C@@H](NC(=O)[C@H](C)NC(=O)[C@@H]1CSSC[C@H](NC(=O)[C@@H](N)CCCCN)C(=O)N[C@@H](CC(N)=O)C(=O)N[C@@H]([C@@H](C)O)C(=O)N[C@@H](C)C(=O)N[C@@H]([C@@H](C)O)C(=O)N1)[C@@H](C)O)C(C)C)C(=O)N[C@@H](CC(C)C)C(=O)N[C@@H](CO)C(=O)N[C@@H](CO)C(=O)N[C@H](C(=O)N[C@@H](CC(N)=O)C(=O)N[C@H](C(=O)NCC(=O)N[C@@H](CO)C(=O)N[C@@H](CC(N)=O)C(=O)N[C@H](C(=O)N[C@@H](Cc1ccc(O)cc1)C(N)=O)[C@@H](C)O)C(C)C)[C@@H](C)O [S20K-human IAPP],onset and duration of toxicity relative to wild type human IAPP,[2],increased the duration of toxicity
"CC(C(=O)O)c1ccc(-c2ccc(O)cc2)c(F)c1 (stereo not shown) [OH-flurbiprofen, 2-(2-fluoro-4′-hydroxybiphenyl-4-yl) propanoic acid]",effect on human IAPP amyloid formation (thioflavin-T time course),human IAPP; [5],highest rate of acceleration of amyloid formation
same,effect on human IAPP amyloid formation (thioflavin-T time course),human IAPP; [4],accelerated islet amyloid formation; also recorded: accelerates amyloid formation by human islet amyloid polypeptide
same,presence and toxic effects of intermediates of amyloid formation,rat INS-1 beta-cells; human IAPP with compound,reduced the presence and toxic effects of intermediates of amyloid formation in a dose dependent fashion
"O=C(O)Cc1ccc(-c2ccccc2)c(F)c1 [2-(2-Fluorobiphenyl-4-yl)acetic acid, 2-(2-fluorobiphenyl-4-yl)acetic acid]",effect on islet amyloid formation (thioflavin-T time course),human IAPP,accelerates islet amyloid formation
same,presence and toxic effects of intermediates of amyloid formation,rat INS-1 beta-cells; [6],reduces the presence and toxic effects of intermediates of amyloid formation
CC(C(=O)O)c1cccc(C(=O)c2ccccc2)c1 (stereo not shown) [Ketoprofen],inhibition of amyloid formation by human IAPP (amylin),human IAPP,do not inhibit amylin amyloid formation
same,inhibition of amylin amyloid formation judged by TEM,"human IAPP (amylin); equimolar to 20-fold excess of Ketoprofen, 42 hours, amylin 16 μM",not an amylin amyloid inhibitor; also recorded: does not inhibit amyloid formation by amylin
same,disaggregation of pre-formed amylin amyloid fibrils,[3],unable to disassemble pre-formed amylin amyloid
"C[C@H](C(=O)O)c1ccc(-c2ccccc2)cc1 [(S)-2-(Biphenyl-4-yl)propanoic acid, (S)-2-(biphenyl-4-yl)propanoic acid]",effect on islet amyloid formation (thioflavin-T time course),human IAPP,accelerates islet amyloid formation
same,presence and toxic effects of intermediates of amyloid formation,rat INS-1 beta-cells; [6],reduces the presence and toxic effects of intermediates of amyloid formation
COc1ccc2cc([C@H](C)C(=O)O)ccc2c1 [Naproxen],inhibition of amyloid formation by human IAPP (amylin),human IAPP,no inhibition of amyloid
same,amyloid fibrils by TEM in presence of NSAID,"human IAPP (amylin); 20-fold excess of NSAID over human IAPP, end of kinetic experiment",no changes in amyloid formation
CC[C@H](C)[C@H](NC(=O)[C@H](C)NC(=O)CNC(=O)[C@H](Cc1ccccc1)NC(=O)[C@H](CC(N)=O)NC(=O)[C@H](CC(N)=O)NC(=O)CNC(=O)[C@H](CO)NC(=O)[C@H](Cc1c[nH]cn1)NC(=O)[C@@H](NC(=O)[C@H](CC(C)C)NC(=O)[C@H](Cc1ccccc1)NC(=O)[C@H](CC(N)=O)NC(=O)[C@H](C)NC(=O)[C@H](CC(C)C)NC(=O)[C@H](CCCNC(=N)N)NC(=O)[C@H](CCC(N)=O)NC(=O)[C@@H](NC(=O)[C@H](C)NC(=O)[C@@H]1CSSC[C@H](NC(=O)[C@@H](N)CCCCN)C(=O)N[C@@H](CC(N)=O)C(=O)N[C@@H]([C@@H](C)O)C(=O)N[C@@H](C)C(=O)N[C@@H]([C@@H](C)O)C(=O)N1)[C@@H](C)O)C(C)C)C(=O)N[C@@H](CC(C)C)C(=O)N[C@@H](CO)C(=O)N[C@@H](CO)C(=O)N[C@H](C(=O)N[C@@H](CC(N)=O)C(=O)N[C@H](C(=O)NCC(=O)N[C@@H](CO)C(=O)N[C@@H](CC(N)=O)C(=O)N[C@H](C(=O)N[C@@H](Cc1ccc(O)cc1)C(N)=O)[C@@H](C)O)C(C)C)[C@@H](C)O [S20G-IAPP],onset and duration of toxicity relative to wild type human IAPP,[2],more rapid onset and shorter duration of toxicity
"O=C(O)Cc1ccc(-c2ccccc2)cc1 [2-(Biphenyl-4-yl)acetic acid, 2-(biphenyl-4-yl)acetic acid]",effect on islet amyloid formation (thioflavin-T time course),human IAPP,accelerates islet amyloid formation
same,presence and toxic effects of intermediates of amyloid formation,rat INS-1 beta-cells; [6],reduces the presence and toxic effects of intermediates of amyloid formation
